Test results published in patent publication US20130309306A1, “INTRAPULMONARY BENZODIAZEPINE FOR THE TREATMENT AND PREVENTION OF SEIZURES” (priority 2010, published 2013).
Marks after values point to notes of the source that are not given here.

Legend:
PTZ-induced convulsions = PTZ-induced convulsions in mice (PTZ 80 mg/kg i.p.); assay type: in vivo
Procedure: (§1) Male NIH Swiss mice (22-30 g) were kept in a vivarium under controlled environmental conditions (temperature, 22-26° C.; humidity, 40-50%) with an artificial 12-h light/dark cycle. Wood chips were used in all cages. Experiments were performed during the light phase of the light/dark cycle after a minimum 30-min period of acclimation to the experimental room. The animal facilities were fully accredited by the Association for Assessment and Accreditation of Laboratory Animal Care. All studies were performed under protocols approved by the Animal Care and Use Committee of the University of California, Davis in strict compliance with the Guide for the Care and Use of Laboratory Animals of the National Research Council (National Academy Press, Washington, D.C.).
Intratracheal administration of midazolam was carried out as described by Oka et al. (2006). In brief, mice were briefly anesthetized using isoflurane anesthesia (4% isoflurane). The animals were immediately placed on a surgical board held at a 60° angle. The animal's mouth was kept open by hanging the upper incisors on a hook to facilitate detection of the epiglottis. An operating light was used to illuminate the view of the pharynx after displacement of the tongue with a spatula. A syringe fitted with a blunted 24-gauge/25-mm was pushed against the soft palate to enter the trachea past the vocal cords. When the tracheal cartilage ring is felt, the needle is considered properly placed within the tracheal lumen. The needle was inserted almost to the bottom of the trachea. When the animals began to show signs that the anesthesia was waning, the liquid sample was gently injected at a dose volume of 0.25 ml/kg. After the injection of solution, air (1 ml syringe) was blown inside the lungs to uniformly distribute the drug in the lungs. Following the injection, the needle was gently removed and animal was held vertically for 2 min to facilitate the downward movement of liquid in the lungs. The animal was allowed 10 min to recover fully from the anesthesia as confirmed by normal spontaneous exploratory behavior. Seizure testing then commenced. For each of the seizure tests, we verified that there was no residual effect of the anesthetic on responsiveness.
PTZ was administered intraperitoneally at a dose of 80 mg/kg, which causes clonic convulsions in >97% of mice (Dhir et al., 2006). […] The time of onset of myoclonic jerks, clonus and tonic extension; and the incidence of lethality was recorded.
Results are expressed as mean±S.E.M.; the significance of the difference in the responses of treatment groups with respect to control is based on one-way analysis of variance (ANOVA) followed by specific post-hoc comparisons using Tukey's test. Differences were considered statistically significant when the probability of error was less than 0.05 (P<0.05). Control values in the threshold tests were the mean threshold values for vehicle-treated groups.

[1] = tested on: picrotoxin-induced seizure; test: Picrotoxin seizure threshold test in mice (intravenous infusion); assay type: in vivo
[2] = tested on: kainic acid induced seizure; test: Kainic acid seizure threshold test in mice (intravenous infusion); assay type: in vivo
Procedure: as §1
Intratracheal administration of midazolam was carried out as described by Oka et al. (2006). In brief, mice were briefly anesthetized using isoflurane anesthesia (4% isoflurane). The animals were immediately placed on a surgical board held at a 60° angle. The animal's mouth was kept open by hanging the upper incisors on a hook to facilitate detection of the epiglottis. […]
Results are expressed as mean±S.E.M.; the significance of the difference in the responses of treatment groups with respect to control is based on one-way analysis of variance (ANOVA) followed by specific post-hoc comparisons using Tukey's test. […]

[3] = Horizontal screen test, acute motor toxicity; assay type: in vivo, mice; conditions: intratracheal 100 μg/kg, any time point of the time course experiment
Procedure: The horizontal screen test was used to assess the acute motor toxicity of intratracheal midazolam (100 μg/kg) in the time course experiment.

[4] = intraperitoneal 100 μg/kg, pretreatment 10 min
[5] = intraperitoneal 500 μg/kg, pretreatment 10 min
[6] = intraperitoneal 750 μg/kg, pretreatment 10 min
[7] = intraperitoneal 1000 μg/kg, pretreatment 10 min
[8] = intratracheal 12.5 μg/kg, pretreatment 10 min
[9] = intratracheal 25 μg/kg, pretreatment 7 min
[10] = intratracheal 25 μg/kg, pretreatment 10 min
[11] = intratracheal 50 μg/kg, pretreatment 7 min
[12] = intratracheal 50 μg/kg, pretreatment 10 min
[13] = intratracheal 100 μg/kg, pretreatment 7 min
[14] = intratracheal 100 μg/kg, pretreatment 10 min
[15] = intratracheal 200 μg/kg, pretreatment 10 min

Question: For `Cc1ncc2n1-c1ccc(Cl)cc1C(c1ccccc1F)=NC2` [Midazolam, midazolam], which Mortality (PTZ-induced convulsions; [4]) is on record?
Answer: 66.67* percent

Question: What about the Percent showing clonus (PTZ-induced convulsions; [4]) of the same compound?
Answer: 100%

Question: What about the Percent showing extensor (PTZ-induced convulsions; [4]) of the same compound?
Answer: 66.67* percent

Question: What about the “Percent showing myoclonic jerks” value (PTZ-induced convulsions; [4]) of the same compound?
Answer: 100%

Question: What about the Mortality (PTZ-induced convulsions; [5]) of the same compound?
Answer: 0* percent

Question: What about the Percent showing clonus (PTZ-induced convulsions; [5]) of the same compound?
Answer: 83.33%

Question: And the Percent showing extensor (PTZ-induced convulsions; [5])?
Answer: 0* percent

Question: What about the “Percent showing myoclonic jerks” value (PTZ-induced convulsions; [5]) of the same compound?
Answer: 100%

Question: What about the Mortality (PTZ-induced convulsions; [6]) of the same compound?
Answer: 0* percent

Question: What about the Percent showing clonus (PTZ-induced convulsions; [6]) of the same compound?
Answer: 33.33* percent

Question: And the Percent showing extensor (PTZ-induced convulsions; [6])?
Answer: 0* percent

Question: And the “Percent showing myoclonic jerks” value (PTZ-induced convulsions; [6])?
Answer: 83.33%

Question: And the Mortality (PTZ-induced convulsions; [7])?
Answer: 0* percent

Question: What about the Percent showing clonus (PTZ-induced convulsions; [7]) of the same compound?
Answer: 0* percent

Question: What about the Percent showing extensor (PTZ-induced convulsions; [7]) of the same compound?
Answer: 0* percent

Question: What about the “Percent showing myoclonic jerks” value (PTZ-induced convulsions; [7]) of the same compound?
Answer: 50* percent

Question: What about the Mortality (PTZ-induced convulsions; [8]) of the same compound?
Answer: 83.33%

Question: And the Percent showing clonus (PTZ-induced convulsions; [8])?
Answer: 100%

Question: What about the Percent showing extensor (PTZ-induced convulsions; [8]) of the same compound?
Answer: 83.33%

Question: And the “Percent showing myoclonic jerks” value (PTZ-induced convulsions; [8])?
Answer: 100%

Question: And the Mortality (PTZ-induced convulsions; [9])?
Answer: 0* percent

Question: And the Percent showing clonus (PTZ-induced convulsions; [9])?
Answer: 83.33%

Question: What about the Percent showing extensor (PTZ-induced convulsions; [9]) of the same compound?
Answer: 0* percent

Question: And the “Percent showing myoclonic jerks” value (PTZ-induced convulsions; [9])?
Answer: 100%

Question: What about the Mortality (PTZ-induced convulsions; [10]) of the same compound?
Answer: 50* percent

Question: What about the Percent showing clonus (PTZ-induced convulsions; [10]) of the same compound?
Answer: 100%

Question: And the Percent showing extensor (PTZ-induced convulsions; [10])?
Answer: 50* percent

Question: What about the “Percent showing myoclonic jerks” value (PTZ-induced convulsions; [10]) of the same compound?
Answer: 100%

Question: And the Mortality (PTZ-induced convulsions; [11])?
Answer: 0* percent

Question: What about the Percent showing clonus (PTZ-induced convulsions; [11]) of the same compound?
Answer: 50* percent

Question: And the Percent showing extensor (PTZ-induced convulsions; [11])?
Answer: 0* percent

Question: What about the “Percent showing myoclonic jerks” value (PTZ-induced convulsions; [11]) of the same compound?
Answer: 66.66* percent

Question: And the Mortality (PTZ-induced convulsions; [12])?
Answer: 16.66* percent

Question: And the Percent showing clonus (PTZ-induced convulsions; [12])?
Answer: 66.66* percent

Question: And the Percent showing extensor (PTZ-induced convulsions; [12])?
Answer: 16.66* percent

Question: And the “Percent showing myoclonic jerks” value (PTZ-induced convulsions; [12])?
Answer: 83.33%

Question: What about the Mortality (PTZ-induced convulsions; [13]) of the same compound?
Answer: 0* percent

Question: What about the Percent showing clonus (PTZ-induced convulsions; [13]) of the same compound?
Answer: 0* percent

Question: And the Percent showing extensor (PTZ-induced convulsions; [13])?
Answer: 0* percent

Question: What about the “Percent showing myoclonic jerks” value (PTZ-induced convulsions; [13]) of the same compound?
Answer: 0* percent

Question: And the Mortality (PTZ-induced convulsions; [14])?
Answer: 0* percent

Question: What about the Percent showing clonus (PTZ-induced convulsions; [14]) of the same compound?
Answer: 50* percent

Question: What about the Percent showing extensor (PTZ-induced convulsions; [14]) of the same compound?
Answer: 0* percent

Question: What about the “Percent showing myoclonic jerks” value (PTZ-induced convulsions; [14]) of the same compound?
Answer: 50* percent

Question: What about the Mortality (PTZ-induced convulsions; [15]) of the same compound?
Answer: 0* percent

Question: And the Percent showing clonus (PTZ-induced convulsions; [15])?
Answer: 0* percent

Question: And the Percent showing extensor (PTZ-induced convulsions; [15])?
Answer: 0* percent

Question: And the “Percent showing myoclonic jerks” value (PTZ-induced convulsions; [15])?
Answer: 0* percent

Question: And the “seizure threshold, picrotoxin infusion” value [1, 4]?
Answer: effective in enhancing the seizure threshold for only clonic phase and ineffective against tonic extension

Question: And the “thresholds for all seizure signs, picrotoxin infusion” value ([1]; intraperitoneal 250, 500 and 1000 μg/kg, pretreatment 10 min (FIG. 3A))?
Answer: significant elevation

Question: And the “seizure thresholds, picrotoxin infusion” value ([1]; intratracheal 25 and 50 μg/kg, pretreatment 10 min (FIG. 3B))?
Answer: effective

Question: What about the “thresholds for clonus and tonic extensor phases, kainic acid infusion” value ([2]; intraperitoneal 2000 μg/kg, pretreatment 10 min (FIG. 4A)) of the same compound?
Answer: significant elevation

Question: And the “seizure thresholds, kainic acid infusion” value ([2]; intratracheal 100 μg/kg, pretreatment 10 min (FIG. 4B))?
Answer: effective

Question: And the “acute motor toxicity, horizontal screen test” value [3]?
Answer: No motor toxicity was observed
